The source of these data is US20090053154A1, “MIXTURES OF ETHYLHEXYL P-METHOXYCINNAMATE AND ETHYLHEXYL SALICYLATE” (SYMRISE GmbH & Co. KG, priority 2005, published 2009).

Where two headings read alike, the source gives them in different places.

The conditions of series [1]: cited from earlier work.
The conditions of series [2]: emulsion containing 5 wt. % of EHMC; cited from earlier work.
Series [3] in a line: Specific extinction E 1%/1 cm of the UV filter. Format: physicochemical. The settings on record: EHS versus EHMC. From the text: 2-Ethylhexyl p-methoxycinnamate (ethylhexyl p-methoxycinnamate, CAS no.: 5466-77-3; USAN: Octinoxate, Neo Heliopan® AV (Symrise trade mark); hereafter abbreviated to EHMC) is a liquid, oil-soluble UV-B filter with a specific extinction E 1%/1 cm at 308 nm of approx. 850 (cf. H&R Contact no. 51, January 1991, pages 3-8). 2-Ethylhexyl p-methoxycinnamate is also frequently abbreviated to octyl methoxycinnamate (OMC) in the literature.
2-Ethylhexyl salicylate (CAS no.: 118-60-5; USAN: Octisalate, Neo Heliopan® OS (Symrise trade mark); hereafter abbreviated to EHS) is likewise a liquid, oil-soluble UV-B filter with a specific extinction E 1%/1 cm at 305 nm of approx. 180 (cf. H&R Contact no. 51, January 1991, pages 3-8). The specific extinction of EHS is lower than that of EHMC by a factor of about 5.
The specific extinction of UV filters is of primary importance as an index for assessing the efficacy in respect of the achievable light protection factor (LPF, hereafter also SPF (sun protection factor)). […] The light protection factor of a (light protection) formulation is a measure of the UV-B protection it can achieve. The absolute SPF values also depend within certain limits on the cosmetic base formulation used.

As to `CCCCC(CC)COC(=O)C=Cc1ccc(OC)cc1` (stereo not shown) [EHMC, 2-Ethylhexyl p-methoxycinnamate], the “specific extinction E 1%/1 cm” value in series [1] (at 308 nm) is listed as “approx. 850”. The “SPF (in vitro measurement)” value in series [2] is listed as 10.1.
Consider `CCCCC(CC)COC(=O)c1ccccc1O` (stereo not shown) [EHS, 2-Ethylhexyl salicylate], for which the “specific extinction lower than that of EHMC by a factor” value in series [3] is “about 5”. Moreover, the “specific extinction E 1%/1 cm” value in series [1] (at 305 nm) is “approx. 180”.
